In patent publication US6642379B1, “Benzamide derivatives, insecticides for agricultural and horticultural use and usage thereof” (Nihon Nohyaku Co., Ltd., priority 1999, dated 2003):

Test system: Diamond Back Moth (Plutella xylostella)
Test: Insecticidal effect on diamond back moth (Test Example 1)
Type: in vivo
Settings: 144 h, Chinese cabbage seedling with eggs immersed about 30 seconds, 25° C., hatched insects counted six days after immersion, read-out: insecticidal effect (mortality) activity ranking
From the text: Insecticidal Effect on Diamond Back Moth (Plutella xylostella)
Adult diamond back moths were released and allowed to oviposit on a Chinese cabbage seedling. Two days after the release, the seedling having the eggs deposited thereon was immersed for about 30 seconds in a liquid chemical prepared by diluting a preparation containing each compound listed in Tables 1 to 4 as an active ingredient to adjust the concentration to 500 ppm. After air-dryness, it was allowed to stand in a room thermostatted at 25° C. Six days after the immersion, the hatched insects were counted. The mortality was calculated according to the following equation and the insecticidal effect was judged according to the criterion shown below. The test was carried out with triplicate groups of 10 insects. [formula]

In the case of `Cc1cc(OC(F)(F)F)ccc1NC(=O)c1cccc(Cl)c1-c1coc(C(C)(C)C)n1` [4-1, 2-(2-t-butyloxazol-4-yl)-3-chloro-2′-methyl-4′-trifluoromethoxybenzanilide], the mortality at 500 ppm was 100%.
